Laboratory results from PMC9551036, “A selective and orally bioavailable VHL-recruiting PROTAC achieves SMARCA2 degradation in vivo” (Nature Communications, 2022).
Values joined by “and” are separate entries in the source; they are usually repeats but may differ in a detail not shown here. Identical values can stand only once. Like-named read-outs stand apart in the source and are kept apart here.

How the values were obtained:
VCB complex = target: T1, VCB complex (Homo sapiens, UniProt P40337); assay: SPR binary binding to immobilised VCB complex
T1 construct: His6 (TEV site) (N, cleaved yes); made in house
T1 sequence (P40337 54-213): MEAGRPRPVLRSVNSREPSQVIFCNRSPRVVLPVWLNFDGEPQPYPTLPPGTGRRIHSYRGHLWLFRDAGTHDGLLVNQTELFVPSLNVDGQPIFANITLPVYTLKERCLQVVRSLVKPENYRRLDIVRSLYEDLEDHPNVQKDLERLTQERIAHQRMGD
T1 sequence (Q15369 17-112 partner limits assumed): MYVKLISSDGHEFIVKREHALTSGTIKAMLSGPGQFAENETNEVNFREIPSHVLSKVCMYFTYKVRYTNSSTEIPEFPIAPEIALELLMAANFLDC
T1 sequence (Q15370 1-104 partner limits assumed): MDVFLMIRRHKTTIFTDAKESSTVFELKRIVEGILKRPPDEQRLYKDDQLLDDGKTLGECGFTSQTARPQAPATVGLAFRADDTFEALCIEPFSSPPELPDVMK
Procedure: (§1) SMARCA4^BD was provided by the Structural Genomics Consortium (SGC), Toronto[32] and SMARCA2^BD and PRM1^BD5 were synthesised by GeneArt then subcloned into pDEST15 vectors (Invitrogen). The VCB complex was expressed and purified as described previously, with the modification that 0.3 mM IPTG was used for induction of expression. […] Both were stored in 20 mM 4-(2-hydroxyethyl)−1-piperazineethanesulfonic acid (HEPES), 150 mM sodium chloride and 1 mM tris(2-carboxyethyl)phosphine (TCEP) pH 7.5. SMARCA2^BD, SMARCA4^BD and PBRM1^BD5 were expressed in Escherichia coli BL21(DE3) as N-terminal GST fusion proteins with a TEV protease cleavage site. Expression and purification of these proteins has been described previously[32],[33]. Starter cultures were grown overnight at 37 °C in 10 mL of Luria-Bertani (LB) medium with ampicillin (100 μg/mL). The starter cultures were diluted (1:100) in Terrific Broth (TB) medium with ampicillin (100 μg/mL) and grown in a shaking incubator at 37 °C to an optical density (OD600) ~1 before the temperature was lowered for induction (to 23 °C for SMARCA2^BD or 18 °C for SMARCA4^BD and PRRM1^BD5). […] Cells were harvested by centrifugation and stored at −80 °C prior to purification. […] The Lysis buffers were as follows: for SMARCA2^BD: 50 mM HEPES, 500 mM sodium chloride, 5% glycerol, 5 mM dithiothreitol (DTT); for SMARCA4^BD: 25 mM HEPES, 0.3 M sodium chloride, 5% glycerol, 10 mM DTT, pH 7.5; for PBRM1^BD5: 25 mM HEPES, 300 mM sodium chloride, 5% glycerol, 10 mM DTT, pH 7.8; in each case supplemented with complete protease inhibitors (Roche). Affinity purification was performed using Glutathione Sepharose 4B (GE Healthcare) in batch mode or on-column. […] For SMARCA2^BD, prior to TEV protease cleavage the eluted GST-tagged BD was first dialysed into desalting buffer (20 mM HEPES, 250 mM sodium chloride, pH 7.0 + 0.5% glycerol). Where TEV cleavage was performed in solution, a second affinity (GST-trap) column purification step was carried out to remove the GST-tag and uncleaved GST-tagged protein. Proteins were further purified by SEC (HiLoad Superdex-75, 16/600) (GE Healthcare) and stored in Storage buffer (for SMARCA2^BD: 20 mM HEPES, 150 mM sodium chloride, pH 7.5; for SMARCA4^BD: 10 mM HEPES, 0.5 M NaCl, 5% glycerol, pH 7.5; for PBRM1^BD5: 20 mM HEPES, 300 mM NaCl, 5 mM DTT, pH 7.8). For AlphaScreen assays, eluted GST-tagged BDs were purified directly by SEC in the respective storage buffers without TEV cleavage. All chromatography purification steps were performed either at room temperature or 4 °C using an ÄKTA FPLC purification system (GE Healthcare) or a plastic Econo-Pac column (Bio-Rad).
(§2) SPR data were acquired on Biacore 8K or T200 instruments (Cytiva). Target proteins were immobilised at 25 °C on CM5 chips by amine coupling (EDC/NHS, Cytiva) in HBS-P+ running buffer (pH 7.4), containing 2 mM TCEP. […] The reference surface was subsequently deactivated using 1 M ethanolamine. […] Biotinylated VCB was prepared as previously described[27]: in brief, the complex was mixed 1:1 with EZ-Link NHS–PEG4–biotin (Thermo Scientific) and incubated at room temperature for 1 h. Unreacted NHS-biotin was removed using a PD-10 desalting column (Cytiva) into 20 mM HEPES, pH 7.5, 150 mM sodium chloride and 1 mM DTT. The reference surface was generated by deactivating the EDC/NHS-treated surface with 1 M ethanolamine. All interaction experiments were done at 6 °C in running buffer (20 mM TRIS, pH 8.3, 150 mM potassium chloride, 2 mM magnesium chloride, 2 mM TCEP, 0.005% TWEEN 20, 1% dimethyl sulfoxide). For ternary complex measurements, a sensor chip surface with VCB immobilised was used (preparation as described above). Experiments were run in dual-inject mode with 10 µM SMARCA present during the injection and dissociation phase. Sensorgrams from reference surfaces and blank injections were subtracted from the raw data prior to data analysis using Biacore Insight software.

PBRM1BD5 [1] = target: T2, PBRM1BD5 (Homo sapiens, UniProt P40337+Q86U86); assay: TR-FRET ternary complex affinity and cooperativity, PBRM1; format: binding; settings: TR-FRET competition for PBRM1BD5, + VCB; mean ± SD; read-out: TR-FRET Ternary PBRM1BD EC50 (PROTAC + VCB)
T2 construct: GST (TEV site) (N); His6 (TEV site) (N, cleaved yes); made in house; host or cells: PBRM1^BD5: Escherichia coli BL21(DE3)
T2 sequence (Q86U86 645-766): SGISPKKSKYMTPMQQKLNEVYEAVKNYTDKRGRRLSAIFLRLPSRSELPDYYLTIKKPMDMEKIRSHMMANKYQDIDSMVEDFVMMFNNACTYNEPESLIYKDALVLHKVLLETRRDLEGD
T2 sequence (P40337 54-213): as the sequence (P40337 54-213) above
T2 sequence (Q15369 17-112 partner): as the sequence (Q15369 17-112 partner limits assumed) above
T2 sequence (Q15370 1-104 partner): as the sequence (Q15370 1-104 partner limits assumed) above

PBRM1BD5 [2] = assay: as above; format: binding; settings: ratio TR-FRET EC50 / TR-FRET EC50 +VCB measured in the same run, PBRM1BD5
SMARCA2^BD = target: T3, SMARCA2^BD (Homo sapiens, UniProt P51531); assay: SPR binding to immobilised SMARCA2 bromodomain; settings: SPR, read-out: SMARCA2 KD
T3 construct: P51531-2, residues 1373-1493 with additional N-terminal SM residues; GST (TEV site) (N, cleaved yes); made in house; host or cells: Escherichia coli BL21(DE3)
T3 sequence (P51531 1373-1493 isoform P51531-2): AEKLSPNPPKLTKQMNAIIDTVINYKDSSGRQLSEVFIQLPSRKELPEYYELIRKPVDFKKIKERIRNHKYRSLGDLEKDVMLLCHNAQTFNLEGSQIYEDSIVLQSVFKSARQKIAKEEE
Procedure: as §1, §2

[3] = system: VCB: PROTAC: SMARCA2^BD ternary complex; assay: TR-FRET ternary complex affinity and cooperativity, SMARCA2; format: binding, human; settings: ratio TR-FRET EC50 / TR-FRET EC50 +VCB measured in the same run, SMARCA2BD
[4] = binary binding to VCB, mean ± SD

SMILES: Cc1ncsc1-c1ccc(CNC(=O)[C@@H]2C[C@@H](O)CN2C(=O)[C@@H](NC(=O)C2(F)CC2)C(C)(C)C)c(OCCN2CCC(c3ccc4c(c3)n(C3CCCC3)c3nc(=O)c5c(Br)cccc5n43)CC2)c1 [compound 20]
- Kd (VCB complex; [4]): 9 ± 7 nM
- Kd (VCB complex; binary, individual replicates): 6.64 nM and 20.3 nM and 5.1 nM and 5.19 nM
- EC50 (PBRM1BD5 [1]): 35 ± 4 nM
- cooperativity α (PBRM1BD) (PBRM1BD5 [2]): 1.1 ± 0.1
- Kd (SMARCA2^BD; SMARCA2BD, mean ± SD): 104 ± 6 nM
- Kd (SMARCA2^BD; individual replicates): 103 nM and 98.8 nM and 110 nM
- cooperativity α (SMARCA2BD) [3]: 0.6 ± 0.2

SMILES: O=c1nc2n(C3CCCC3)c3ccccc3n2c2cccc(Br)c12 [compound 1]
- EC50 (PBRM1BD5 [1]): 131 ± 8 nM
- Kd (SMARCA2^BD; SMARCA2BD, mean ± SD): 1060 ± 258 nM
- Kd (SMARCA2^BD; individual replicates): 1050 nM and 804 nM and 1320 nM

SMILES: CN1CCN(c2nc(=O)c3c(Br)cccc3o2)CC1 [compound 15]
- Kd (SMARCA2^BD; SMARCA2BD, mean ± SD): 9000 ± 526 nM
- Kd (SMARCA2^BD; individual replicates): 8910 nM and 9570 nM and 8530 nM

SMILES: Cc1ncsc1-c1ccc([C@H](COC(C)CN2CCC(c3ccc4c(c3)n(C3CCCC3)c3nc(=O)c5c(Br)cccc5n43)CC2)NC(=O)[C@@H]2C[C@@H](O)CN2C(=O)[C@@H](NC(=O)C2(F)CC2)C(C)(C)C)cc1 (stereo partly shown) [compound 9]
- Kd (VCB complex; [4]): 34 ± 6 nM
- Kd (VCB complex; binary, individual replicates): 39.9 nM and 37.9 nM and 30.4 nM and 26.2 nM
- EC50 (PBRM1BD5 [1]): 7 ± 3 nM
- cooperativity α (PBRM1BD) (PBRM1BD5 [2]): 5.5 ± 1.7
- Kd (SMARCA2^BD; SMARCA2BD, mean ± SD): 263 ± 9 nM
- Kd (SMARCA2^BD; individual replicates): 260 nM and 273 nM and 257 nM
- cooperativity α (SMARCA2BD) [3]: 7.0 ± 2.6

SMILES: Cc1ncsc1-c1ccc([C@H](CC[C@@H](C)CCN2CCC(c3ccc4c(c3)n(C3CCCC3)c3nc(=O)c5c(Br)cccc5n43)CC2)NC(=O)[C@@H]2C[C@@H](O)CN2C(=O)[C@@H](NC(=O)C2(F)CC2)C(C)(C)C)cc1 [compound 29]
- Kd (VCB complex; [4]): 13 ± 7 nM
- Kd (VCB complex; binary, individual replicates): 21.3 nM and 18.2 nM and 7.09 nM and 8.27 nM and 5.72 nM and 14.8 nM
- EC50 (PBRM1BD5 [1]): 3 ± 1 nM
- cooperativity α (PBRM1BD) (PBRM1BD5 [2]): 24.9 ± 2.4
- Kd (SMARCA2^BD; SMARCA2BD, mean ± SD): 255 ± 42 nM
- Kd (SMARCA2^BD; individual replicates): 304 nM and 227 nM and 235 nM
- cooperativity α (SMARCA2BD) [3]: 6.4 ± 1.1

SMILES: Cc1ncsc1-c1ccc([C@H](CCC(C)(C)CCN2CCC(c3ccc4c(c3)n(C3CCCC3)c3nc(=O)c5c(Br)cccc5n43)CC2)NC(=O)[C@@H]2C[C@@H](O)CN2C(=O)[C@@H](NC(=O)C2(F)CC2)C(C)(C)C)cc1 [compound 30]
- Kd (VCB complex; [4]): 29 ± 8 nM
- Kd (VCB complex; binary, individual replicates): 38.3 nM and 25.5 nM and 32.6 nM and 21 nM
- EC50 (PBRM1BD5 [1]): 6 ± 2 nM
- cooperativity α (PBRM1BD) (PBRM1BD5 [2]): 22.4 ± 3.9
- Kd (SMARCA2^BD; SMARCA2BD, mean ± SD): 325 ± 31 nM
- Kd (SMARCA2^BD; individual replicates): 290 nM and 351 nM and 333 nM
- cooperativity α (SMARCA2BD) [3]: 5.9 ± 1.9

SMILES: Cc1ncsc1-c1ccc([C@H](CCCCN2CCC(c3ccc4c(c3)n(C3CCCC3)c3nc(=O)c5c(Br)cccc5n43)CC2)NC(=O)[C@@H]2C[C@@H](O)CN2C(=O)[C@@H](NC(=O)C2(F)CC2)C(C)(C)C)cc1 [compound 25]
- Kd (VCB complex; [4]): 6 ± 1 nM
- Kd (VCB complex; binary, individual replicates): 6.94 nM and 6.43 nM and 5.3 nM
- EC50 (PBRM1BD5 [1]): 3 ± 1 nM
- cooperativity α (PBRM1BD) (PBRM1BD5 [2]): 11.2 ± 2.1
- Kd (SMARCA2^BD; SMARCA2BD, mean ± SD): 93 ± 3 nM
- Kd (SMARCA2^BD; individual replicates): 95.4 nM and 90.4 nM and 94 nM
- cooperativity α (SMARCA2BD) [3]: 2.2 ± 0.6

SMILES: Cc1ncsc1-c1ccc([C@H](COCCN2CCC(c3ccc4c(c3)n(C3CCCC3)c3nc(=O)c5c(Br)cccc5n43)CC2)NC(=O)[C@@H]2C[C@@H](O)CN2C(=O)[C@@H](NC(=O)C2(N(C)C)CC2)C(C)(C)C)cc1 [compound 26]
- Kd (VCB complex; [4]): 76 ± 46 nM
- Kd (VCB complex; binary, individual replicates): 55.5 nM and 144 nM and 50.1 nM and 53.4 nM
- EC50 (PBRM1BD5 [1]): 6 ± 2 nM
- cooperativity α (PBRM1BD) (PBRM1BD5 [2]): 4.0 ± 1.2
- Kd (SMARCA2^BD; SMARCA2BD, mean ± SD): 118 ± 5 nM
- Kd (SMARCA2^BD; individual replicates): 119 nM and 123 nM and 113 nM
- cooperativity α (SMARCA2BD) [3]: 5.8 ± 1.9

SMILES: CN1CCN(c2nc(=O)c3c(Cl)cccc3o2)CC1 [compound 13]
- Kd (SMARCA2^BD; SMARCA2BD, mean ± SD): 24500 ± 2170 nM
- Kd (SMARCA2^BD; individual replicates): 26500 nM and 24900 nM and 22200 nM
